For test [1], the system named is pDAB1 (Tyr232). Briefly: HRECs treated 5 minutes with recombinant mini-RELN, pDAB1 western blot. The test is classed as cell-based, human. The following applies: 5 minutes, 4 ug/mL recombinant protein. The procedure:
For in vitro screening of constructs using recombinant mini-RELN on HRECs, the cells were cultured in EBM-2 media enriched with EGM-2 Single Quots (Lonza) at 37° C. and 5% CO2 and experimentally tested at passage 7. 24 h prior experiment, cells were plated on a 6-well plate at 500,000 cells/mL. Two hours before the experiment, the cells were washed with PBS to remove residual growth media and then incubated with a starving media including EBM-2, 1% GlutaMax+0.2% Normicin. Treatments was conducted using recombinant mini RELN constructs obtained from Innovagen and Recombinant Mouse Reelin Protein from R&D systems (3820-MR-025/CF). Each treatment was incubated for 5 minutes at 4 ug/mL concentration and cells were subsequently harvested in lysis buffer was applied constituted of RIPA (Cell signaling), proteases inhibitors (cOmplete™, Mini, EDTA-free Protease Inhibitor Cocktail, Roche), phosphatases inhibitors (PhosSTOP, Roche), 1 μL of proteasome inhibitor MG-132 10 mM, 1% Triton X 100. The lysates were scraped and centrifugated at 15000 rpm for 10 minutes at 4° C. Total protein levels were quantified via BCA assay. […] We detected pDAB1 (Tyr232; 1:1000, rabbit, #3325 Cell signaling), and total protein staining (Licor). […] To quantify the results, each band was quantified using ImageJ and data expressed as pDABL:total protein ratio normalized to the control.

Test [2] relates to pDAB1 (Tyr232). The test is described as follows: HRECs treated 5 minutes with HEK 293T-derived mini-RELN media, pDAB1 western blot. The test is classed as cell-based, human. Conditions: HEK 293T-derived media 1:1, 1:4, 1:14, 5 minutes. Here is the method:
The effect of in vitro treatment with RELN or miniRELN protein was also evaluated. HRECs were cultured in EBM-2 media enriched with EGM-2 Single Quots (Lonza) at 37° C. and 5% CO2 and experimentally tested at passage 7. 24 h prior experiment, cells were plated on a 6-well plate at 500,000 cells/mL. Two hours before the experiment, the cells were washed with PBS to remove residual growth media and then incubated with a starving media including EBM-2, 1% GlutaMax+0,2% Normicin. Treatments was conducted using media derived from HEK 293T cells transiently transfected for 24 h with different mini-RELN constructs in the presence of Lipofectamine 2000. […] Total protein levels were quantified via BCA assay. […] We detected pDAB1 (Tyr232; 1:1000, rabbit, #3325 Cell signaling), and Beta actin (1:5000, mouse, #66009-1-Ig, Proteintech. Antibodies were diluted using Intercept® (TBS) Blocking Buffer and incubated overnight at 4C under gentle shaking. Prior secondary antibody incubation, membranes were washes 2 times using TBS-T for 10 minutes. As secondary antibodies we used IR Dye 800n CW Goat-anti-Rabbit (925-32211, Licor) and IR Dye 680 CW Goat-anti-Mouse (925-68070, Licor) both diluted 1:10000 in blocking buffer for 1 h at room temperature under gentle shaking. Membranes were washed three times with TBS-T prior IR detection using Odyssey imager. […]
A general note: A western blot detects proteins with antibodies after separation by electrophoresis.

The values that follow come from patent US20260139017A1, “COMPOSITIONS AND METHODS USING REELIN IN ALZHEIMER'S DISEASE” (The General Hospital Corporation, priority 2022, published 2026).

As for “IL2signalpeptide-6XHistag(SEQ ID NO: 62)-hReelin(AALeu1220-Ile2660) Cterm-REELINWT [225SV]”, the pDAB1 levels entry with pDAB1 (Tyr232) [1] is given as “increased pDAB1 levels”. Moreover, the “pDAB1 / Dab1 signaling activation” value with pDAB1 (Tyr232) [2] is “efficacy”.
